Where two headings read alike, the source gives them in different places. Each block holds one compound with its values, some of them ahead of it.
Test system: PMA-differentiated THP-1 cells
Test: IL-1β production in PMA-differentiated THP-1 cells stimulated with gramicidin (hTHP-1 assay containing 2% fetal bovine serum; Procedures 1 and 2)
Assay type: cell-based, human
Conditions: 2% fetal bovine serum
In short: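 IL-1β release from PMA-differentiated THP-1 macrophage-like cells was triggered by 5 μM gramicidin for 2 h after 1 h compound exposure, then measured by HTRF.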

[1] = Homo sapiens, THP-1, Table B1, class symbols, read-out: Average IC50 of compounds in hTHP-1 assay: hTHP-1 IC50
[2] = Table B2, class symbols, read-out: hTHP-1 IC50
[3] = Homo sapiens, THP-1, Table B3, hTHP-1 assay, class symbols, read-out: IC50
[4] = Homo sapiens, THP-1, Table B2, class symbols, read-out: hTHP-1 IC50
[5] = Table B1, class symbols, read-out: Average IC50 of compounds in hTHP-1 assay: hTHP-1 IC50

SMILES: CN(C)Cc1ccc(S(N)(=O)=NC(=O)Nc2c3c(nc4c2CCC4)CCC3)cc1 (single isomer, unassigned) [Compound 130b, (R) or (S)-4-((dimethylamino)methyl)-N′-((1,2,3,5,6,7-hexahydro-dicyclopenta[b,e]pyridin-8-yl)carbamoyl)benzene-sulfonamidamide]
- IC50 [1]: 1 to 5 µM

SMILES: CCn1cc(F)c(S(N)(=O)=NC(=O)Nc2c3c(nc(C(F)(F)F)c2C2CC2)CCC3)n1 (centres unmarked) [Example 744, N′-((3-cyclopropyl-2-(trifluoromethyl)-6,7-dihydro-5H-cyclopenta[b]pyridin-4-yl)carbamoyl)-1-ethyl-4-fluoro-1H-pyrazole-3-sulfonimidamide]
- IC50 (Homo sapiens, THP-1, Table B4, class symbols, read-out: hTHP-1 IC50): 0.04 to 0.2 µM

SMILES: CC1(C)CCc2c1nc1c(c2NC(=O)N=[S@](N)(=O)c2cc([C@@](C)(O)CO)cs2)CCC1 [Example 654, (S)-4-((R)-1,2-dihydroxypropan-2-yl)-N′-((3,3-dimethyl-1,2,3,5,6,7-hexahydrodicyclopenta[b,e]pyridin-8-yl)carbamoyl) thiophene-2-sulfonimidamide]
- IC50 [3]: 5 to 30 µM

SMILES: Cc1c(C2(F)CC2)nc2c(c1NC(=O)N=S(N)(=O)c1sc(C(C)(C)O)cc1F)CCC2 (centres unmarked) [Compound 733]
- IC50 [4]: 1 to 5 µM

SMILES: CC(C)(O)c1sc(S(N)(=O)=NC(=O)Nc2c3c(nc4c2CCC4(C)C)CCC3)cc1F (centres unmarked) [Compound 613, N′-((3,3-dimethyl-1,2,3,5,6,7-hexahydrodicyclopenta[b,e]pyridin-8-yl)carbamoyl)-4-fluoro-5-(2-hydroxypropan-2-yl)thiophene-2-sulfonimidamide]
- IC50 [4]: 0.2 to 1 µM

SMILES: Cc1c(C2CCC2)nc2c(c1NC(=O)N=S(N)(=O)c1cc(C(C)(C)O)cs1)CCC2 (centres unmarked) [Compound 658, N′-((2-cyclobutyl-3-methyl-6,7-dihydro-5H-cyclopenta[b]pyridin-4-yl)carbamoyl)-4-(2-hydroxypropan-2-yl)thiophene-2-sulfonimidamide]
- IC50 [4]: 5 to 30 µM

SMILES: Cc1c(C(F)(F)F)nc2c(c1NC(=O)N=[S@](N)(=O)c1ccn(C)n1)CCC2 (single isomer, unassigned) [Compound 730a]
- IC50 [4]: 5 to 30 µM

SMILES: CC(C)c1ncc(F)c(C(C)C)c1NC(=O)N=S(N)(=O)c1sc(C(C)(C)O)cc1F (single isomer, unassigned) [Compound 106b, (S) or (R)-3-fluoro-N′-((5-fluoro-2,4-diisopropylpyridin-3-yl)carbamoyl)-5-(2-hy-droxypropan-2-yl)thiophene-2-sulfonimidamide]
- IC50 [5]: 1 to 5 µM

SMILES: CC1(C)CCc2c1nc1c(c2NC(=O)N=S(N)(=O)c2cnc(C(C)(O)CO)s2)CCC1 (single isomer, unassigned) [Compound 201d, (R, S) or (S, S) or (S, R) or (R, R)-2-(1.2-Dihydroxypropan-2-yl)-N′-((3,3-dimethyl-1,2,3,5,6.7-hexahydrodicyclopenta [b,e]pvridin-8-yl)carbamoyl)thiazole-5-sulfonimidamide]
- IC50 [2]: 5 to 30 µM

SMILES: CN[C@H]1COc2c(S(N)(=O)=NC(=O)Nc3c(C)c(C(F)(F)F)nc4c3CCC4)cnn2C1 (stereo partly drawn) [Example 580, (6R)-N′-((3-methyl-2-(trifluoromethyl)-6,7-dihydro-5H-cyclopenta[b]pyridin-4-yl)carbamoyl)-6-(methylamino)-6,7-dihydro-5H-pyrazolo[5,1-b][1,3]oxazine-3-sulfonimidamide]
- IC50 [3]: 1 to 5 µM

SMILES: Cc1c(C2CC2)nc2c(c1NC(=O)N=S(N)(=O)c1cc(C(C)(C)O)n(-c3ccccc3)n1)CCC2 (single isomer, unassigned) [Compound 651b, (R) or (S)-N′-((2-cyclopropyl-3-methyl-6,7-dihydro-5H-cyclopenta[b]pyridin-4-yl)carbamoyl)-5-(2-hydroxypropan-2-yl)-1-phenyl-1H-pyrazole-3-sulfonimidamide]
- IC50 [2]: 1 to 5 µM

SMILES: Cc1nc2c(c(NC(=O)N=S(N)(=O)c3cnc(C(C)(C)O)s3)c1C(C)C)CCC2 (centres unmarked) [Compound 116, 2-(2-hydroxypropan-2-yl)-N′-((3-isopropyl-2-methyl-6,7-dihydro-5H-cyclopenta[b]pyridin-4-yl)carbamoyl)thiazole-5-sulfonimidamide]
- IC50 [1]: 5 to 30 µM

SMILES: NS(=O)(=NC(=O)Nc1c2c(nc3c1CCC31CC1)CCC2)c1cnn(C(F)F)c1 (single isomer, unassigned) [Compound 638a, (R) or (S)-1-(Difluoromethyl)-N′-((1′,5′,6′,7′-tetrahydro-2′H-spiro[cyclopropane-1,3′-dicyclopenta[b,e]pyridin]-8′-yl)carbamoyl)-1H-pyrazole-4-sulfonimidamide]
- IC50 [4]: 1 to 5 µM

SMILES: CCc1c(C2CC2)nc2c(c1NC(=O)N=S(N)(=O)c1cnc(C(C)(C)O)s1)CCC2 (single isomer, unassigned) [Compound 675b, (S) or (R)-N′-((2-cyclopropyl-3-ethyl-6,7-dihydro-5H-cyclopenta[b]pyridin-4-yl)carbamoyl)-2-(2-hydroxypropan-2-yl)thiazole-5-sulfonimidamide]
- IC50 [2]: 5 to 30 µM

SMILES: CC1(C)CCc2c1nc1c(c2NC(=O)NS(=N)(=O)c2cnc([C@@](C)(O)COCCOCCOCCOCCO)s2)CCC1 (stereo partly drawn) [Example 584, 2-((S)-1,14-dihydroxy-3,6,9,12-tetraoxapentadecan-14-yl)-N-((3,3-dimethyl-1,2,3,5,6,7-hexahydrodicyclopenta[b,e]pyridin-8-yl)carbamoyl)thiazole-5-sulfonimidamide]
- IC50 (Homo sapiens, THP-1, Table B3, hTHP-1 assay, numeric values, read-out: IC50): > 30 µM

Other lines, results leading:

- IC50 [2]: 5 to 30 µM
SMILES: CCn1ccc(S(N)(=O)=NC(=O)Nc2c3c(nc4c2CC[C@H]4C)CCC3)n1 (single isomer, unassigned) [Compound 634a, (S) or (R)-1-Ethyl-N′-(((R)-3-methyl-1,2,3,5,6,7-hexahydrodicyclopenta [b,e]pyridin-8-yl)carbamoyl)-1H-pyrazole-3-sulfonimidamide]

- IC50 (Homo sapiens, THP-1, Table B1, numeric bounds, read-out: Average IC50 of compounds in hTHP-1 assay: hTHP-1 IC50): > 30 µM
SMILES: Cn1nc(S(N)(=O)=NC(=O)Nc2c3c(nc4c2CCC4)CCC3)cc1C(C)(C)O (single isomer, unassigned) [Compound 158b, (S) or (R)-N′-((1,2,3,5,6,7-hexahydrodicyclo-penta[b,e]pyridin-8-yl)carbamoyl)-5-(2-hydroxypropan-2-yl)-1-methyl-1H-pyrazole-3-sulfonimidamide]

- IC50 [4]: 1 to 5 µM
SMILES: Cc1c(C2CC2)nc2c(c1NC(=O)N=S(N)(=O)c1ccn(C(F)F)n1)CCC2 (centres unmarked) [Compound 676, N′-((2-cyclopropyl-3-methyl-6,7-dihydro-5H-cyclopenta[b]pyridin-4-yl)carbamoyl)-1-(difluoromethyl)-1H-pyrazole-3-sulfonimidamide]

- IC50 [2]: 0.2 to 1 µM
SMILES: CCc1cc(F)c(S(N)(=O)=NC(=O)Nc2c3c(nc4c2CC[C@H]4C)CCC3)s1 (single isomer, unassigned) [Compound 720a, (R) or (S)-5-Ethyl-3-fluoro-N′-(((R)-3-methyl-1,2,3,5,6,7-hexahydrodicyclopenta[b, e]pyridin-8-yl)carbamoyl)thiophene-2-sulfonimidamide]

- IC50 [5]: 0.04 to 0.2 µM
SMILES: CC1CCc2c1nc1c(c2NC(=O)N=S(N)(=O)c2cc(C(C)(C)O)cs2)CCC1 (centres unmarked) [Compound 141, 4-(2-hydroxypropan-2-yl)-N′-((3-methyl-1,2,3,5,6,7-hexahydrodicyclopenta[b,e]pyridin-8-yl)carbamoyl)thiophene-2-sulfonimidamide]

- IC50 [5]: 0.2 to 1 µM
SMILES: CC1CCc2c1nc1c(c2NC(=O)N=S(N)(=O)c2cc(C(C)(C)O)cs2)CCC1C [Compound 131aab, (R,R,S) and (R,S,R)-N′-((3,5-dimethyl-1,2,3,5,6,7-hexa-hydrodicyclo-penta[b,e]pyridin-8-yl)carbamoyl)-4-(2-hydroxypropan-2-yl)thiophene-2-sulfonimidamide]

- IC50 [5]: 0.04 to 0.2 µM
SMILES: CC1CCc2c1nc1c(c2NC(=O)N=S(N)(=O)c2ccn(C(C)C)n2)CCC1 (single isomer, unassigned) [Compound 129aa, (R,R) or (R,S)-1-isopropyl-N′-((3-methyl-1,2,3,5,6,7-hexa-hydrodicyclo-penta[b,e]pyridin-8-yl)carbamoyl)-1H-pyrazole-3-sulfonimidamide]

- IC50 (Homo sapiens, THP-1, Table B2, numeric bounds, read-out: hTHP-1 IC50): > 30 µM
SMILES: CC1CCc2c1nc1c(c2NC(=O)N=S(N)(=O)c2cn(C(C)C)cn2)CCC1 (single isomer, unassigned) [Compound 660c, (S, R) or (R, S) or (S, S) or (R, R)-1-Isopropyl-N′-((3-methyl-1,2,3,5,6,7-hexahydrodicyclopenta [b,e]pyridin-8-yl)carbamoyl)-1H-imidazole-4-sulfonimidamide]

- IC50 [5]: 1 to 5 µM
SMILES: CC1CCc2c1nc1c(c2NC(=O)N=S(N)(=O)c2cnc(C(C)(C)O)s2)CCC1 (single isomer, unassigned) [Compound 162ab, (S,R) or (S,S)-2-(2-hydroxypropan-2-yl)-N′-((3-methyl-1,2,3,5,6,7-hexahydrodicyclo-penta[b,e]pyridin-8-yl)carbamoyl)thiazole-5-sulfonimidamide]

- IC50 [4]: 1 to 5 µM
SMILES: CC(C)(O)c1ccnc(S(N)(=O)=NC(=O)Nc2c3c(nc4c2CCC4(C)C)CCC3)c1 (single isomer, unassigned) [Compound 620b, (R) or (S)-N′-((3,3-dimethyl-1,2,3,5,6,7-hexahydrodicyclopenta [b,e]pyridin-8-yl)carbamoyl)-4-(2-hydroxypropan-2-yl)pyridine-2-sulfonimidamide]

- IC50 [4]: 1 to 5 µM
SMILES: CC(C)n1cc(Cl)c(S(N)(=O)=NC(=O)Nc2c3c(nc4c2CCC4)CCC3)n1 (centres unmarked) [Compound 694, 4-Chloro-N′-((1,2,3,5,6,7-hexahydrodicyclopenta[b,e]pyridin-8-yl)carbamoyl)-1-isopropyl-1H-pyrazole-3-sulfonimidamide]
